Results published in DBAASP.
Converted amounts (≈) assume the structure as drawn.

What was measured:
Assay in all cases: ≥ marks a high value that may be exact or a test limit, other limits are often not marked, values filed in µg/mL are converted to µM
[1] = tested on: Candida albicans NCPF 1467
[2] = tested on: Staphylococcus aureus NCTC 10788
[3] = tested on: Escherichia coli NCTC 10418
[4] = tested on: Staphylococcus aureus ATCC 12493
[5] = tested on: Staphylococcus aureus ATCC 2592
[6] = tested on: Escherichia coli ATCC 25922
[7] = tested on: Pseudomonas aeruginosa ATCC 9027
[8] = tested on: Candida albicans ATCC 2002
[9] = tested on: Salmonella enterica subsp. enterica serovar Enteritidis
Listeria innocua = tested on: Listeria innocua
Micrococcus luteus A270 = tested on: Micrococcus luteus A270
Escherichia coli = tested on: Escherichia coli
[10] = tested on: Staphylococcus aureus ATCC 25923
Escherichia coli ML-35p = tested on: Escherichia coli ML-35p
[11] = tested on: Enterococcus faecalis ATCC 29212
[12] = tested on: Pseudomonas aeruginosa ATCC 27853
[13] = tested on: Staphylococcus aureus ATCC BAA-44
Escherichia coli K-12 = tested on: Escherichia coli K-12
Klebsiella pneumoniae = tested on: Klebsiella pneumoniae
[14] = tested on: Staphylococcus aureus NCTC 8325-4
[15] = tested on: Pseudomonas aeruginosa PAO1
[16] = tested on: Staphylococcus epidermidis
Escherichia coli BL21 = tested on: Escherichia coli BL21
Escherichia coli MG1655 = tested on: Escherichia coli MG1655
Staphylococcus aureus = tested on: Staphylococcus aureus
Enterobacter cloacae = tested on: Enterobacter cloacae
Bacillus subtilis = tested on: Bacillus subtilis
[17] = tested on: Candida albicans ATCC 90028
[18] = tested on: Salmonella enterica subsp. enterica serovar Typhi
Pseudomonas aeruginosa = tested on: Pseudomonas aeruginosa

Question: How did the MIC [1] turn out when CC[C@H](C)[C@H](NC(=O)[C@H](C)NC(=O)[C@H](CO)NC(=O)[C@@H]1CCCN1C(=O)[C@@H](NC(=O)[C@H](CC(C)C)NC(=O)[C@H](CO)NC(=O)[C@H](Cc1ccccc1)NC(=O)[C@H](CC(C)C)NC(=O)[C@@H](N)Cc1ccccc1)[C@@H](C)CC)C(=O)N[C@@H](C)C(=O)NCC(=O)N[C@@H](CC(C)C)C(=O)N[C@H](C(=O)N[C@@H](CO)C(=O)N[C@@H](C)C(=O)N[C@H](C(=O)N[C@@H](CCCN=C(N)N)C(=O)N[C@@H](CC(N)=O)C(N)=O)[C@@H](C)CC)C(C)C [FLFSLIPSAIAGLVSAIRN] was run?
Answer: 16.1 µM (≈ 32 µg/mL)

Question: And the MIC [2]?
Answer: 8.04 µM (≈ 16 µg/mL)

Question: And the MIC [3]?
Answer: ≥ 257 µM

Question: Which results are given for CC(C)C[C@H](NC(=O)[C@H](CC(C)C)NC(=O)[C@H](CC(C)C)NC(=O)[C@@H]1CCCN1C(=O)[C@H](CC(C)C)NC(=O)[C@@H](N)Cc1ccccc1)C(=O)N[C@@H](CO)C(=O)N[C@@H](C)C(=O)N[C@@H](CC(C)C)C(=O)N1CCC[C@H]1C(=O)N[C@@H](CO)C(=O)N[C@@H](Cc1ccccc1)C(=O)N[C@@H](CC(C)C)C(=O)N[C@H]1CSSC[C@@H](C(=O)O)NC(=O)[C@H](CCCCN)NC(=O)[C@H](CCCCN)NC(=O)[C@H](Cc2ccccc2)NC(=O)[C@H](C(C)C)NC(=O)[C@H](CC(C)C)NC1=O [FLPLLLSALPSFLCLVFKKC]?
Answer: MIC [1]: ≥ 512 µM; MIC [4]: ≥ 512 µM; MIC [2]: ≥ 32 µM; MIC [5]: 17 µM (≈ 38.3 µg/mL); MIC [6]: 33 µM (≈ 74.3 µg/mL); MIC [7]: > 44 µM; MIC [3]: ≥ 512 µM; MIC [8]: ≥ 44 µM

Question: CC(C)C[C@H](NC(=O)[C@@H](N)Cc1ccccc1)C(=O)N[C@@H](CO)C(=O)N[C@@H](Cc1ccccc1)C(=O)N1CCC[C@H]1C(=O)N[C@H](C(=O)N[C@H](C(=O)N[C@@H](CCCCN)C(=O)N[C@H](C(=O)N[C@@H](Cc1ccc(O)cc1)C(=O)N[C@@H](Cc1ccccc1)C(=O)N1CCC[C@H]1C(=O)N[C@@H](Cc1cnc[nH]1)C(=O)N[C@@H](Cc1ccccc1)C(=O)O)[C@@H](C)O)[C@@H](C)O)[C@@H](C)O [FLSFPTTKTYFPHF] was tested. Which MIC [9] did it give?
Answer: 9 µM (≈ 15.6 µg/mL)

Question: What about the MIC (Listeria innocua) of the same compound?
Answer: 1 µM (≈ 1.73 µg/mL)

Question: What about the MIC (Micrococcus luteus A270) of the same compound?
Answer: 5 µM (≈ 8.67 µg/mL)

Question: What about the MIC (Escherichia coli) of the same compound?
Answer: 9 µM (≈ 15.6 µg/mL)

Question: Which MIC [1] does the source give for CC(C)C[C@H](NC(=O)[C@H](C)NC(=O)[C@H](CC(C)C)NC(=O)[C@H](CO)NC(=O)[C@H](CC(C)C)NC(=O)[C@@H](N)Cc1ccccc1)C(=O)N[C@@H](C)C(=O)N[C@@H](C)C(=O)N[C@@H](CC(C)C)C(=O)N1CCC[C@H]1C(=O)N[C@@H](CCCCN)C(=O)N[C@@H](Cc1ccccc1)C(=O)N[C@@H](CC(C)C)C(=O)N[C@H]1CSSC[C@@H](C(=O)O)NC(=O)[C@H](CCCCN)NC(=O)[C@H](CCCCN)NC(=O)[C@H](Cc2ccccc2)NC(=O)[C@H](C(C)C)NC(=O)[C@H](CC(C)C)NC1=O [FLSLALAALPKFLCLVFKKC] here?
Answer: ≥ 32 µM

Question: What about the MIC [4] of the same compound?
Answer: ≥ 32 µM

Question: What about the MIC [2] of the same compound?
Answer: ≥ 32 µM

Question: And the MIC [6]?
Answer: 15 µM (≈ 33.4 µg/mL)

Question: And the MIC [3]?
Answer: ≥ 512 µM

Question: What about the MIC [10] of the same compound?
Answer: 15 µM (≈ 33.4 µg/mL)

Question: Which MIC (Escherichia coli ML-35p) does the source give for CC[C@H](C)[C@H](NC(=O)CN)C(=O)N[C@@H](CCCCN)C(=O)N[C@@H](CC(=O)O)C(=O)N[C@@H](CC(C)C)C(=O)N[C@@H](CC(C)C)C(=O)N[C@@H](CCCCN)C(=O)NCC(=O)N[C@@H](C)C(=O)N[C@@H](C)C(=O)N[C@@H](CCCCN)C(=O)N[C@@H](C)C(=O)N[C@@H](CC(C)C)C(=O)N[C@H](C(=O)N[C@@H](CCCCN)C(=O)N[C@H](C(=O)N[C@H](C(=O)N[C@@H](CC(C)C)C(=O)N[C@@H](CCCCN)C(N)=O)C(C)C)[C@@H](C)O)C(C)C [GIKDLLKGAAKALVKTVLK] here?
Answer: 12.5 µM (≈ 24.6 µg/mL)

Question: What about the MIC [11] of the same compound?
Answer: 50 µM (≈ 98.3 µg/mL)

Question: And the MIC [12]?
Answer: 25 µM (≈ 49.1 µg/mL)

Question: What about the MIC [6] of the same compound?
Answer: 1.7 µM (≈ 3.34 µg/mL)

Question: And the MIC [13]?
Answer: 6.3 µM (≈ 12.4 µg/mL)

Question: And the MIC [10]?
Answer: 4.7 µM (≈ 9.24 µg/mL)

Question: Which results are given for CC(C)C[C@H](NC(=O)[C@H](CC(C)C)NC(=O)[C@H](CCCCN)NC(=O)[C@H](CCCCN)NC(=O)[C@H](CC(C)C)NC(=O)[C@H](CC(C)C)NC(=O)[C@H](CCCCN)NC(=O)[C@H](CCCCN)NC(=O)[C@@H](N)CC(C)C)C(=O)N[C@@H](CCCCN)C(N)=O [LKKLLKKLLK]?
Answer: MIC (Escherichia coli K-12): 31.3 µM (≈ 38.3 µg/mL); MIC (Klebsiella pneumoniae): > 500 µM; MIC [14]: ≥ 500 µM; MIC [15]: 62.5 µM (≈ 76.5 µg/mL)

Question: Which results are given for CC(C)C[C@H](NC(=O)[C@H](CO)NC(=O)[C@H](Cc1cnc[nH]1)NC(=O)[C@H](CO)NC(=O)[C@H](CC(C)C)NC(=O)[C@@H](N)CC(C)C)C(=O)O [LLSHSL]?
Answer: MIC (Listeria innocua): ≥ 187 µM; MIC (Micrococcus luteus A270): ≥ 46.8 µM; MIC (Escherichia coli): 46.8 µM (≈ 31.3 µg/mL)

Question: With CC[C@H](C)[C@H](NC(=O)[C@H](CCCCN)NC(=O)[C@H](CCCN=C(N)N)NC(=O)[C@H](CCCCN)NC(=O)[C@H](CCCCN)NC(=O)[C@H](CCCCN)NC(=O)[C@H](Cc1c[nH]c2ccccc12)NC(=O)[C@H](CCCCN)NC(=O)[C@H](CC(C)C)NC(=O)[C@H](CO)NC(=O)[C@H](Cc1ccccc1)NC(=O)[C@H](CCCN=C(N)N)NC(=O)[C@H](CC(=O)O)NC(=O)[C@H](CCSC)NC(C)=O)C(=O)N[C@@H](CCCN=C(N)N)C(=O)N[C@@H](CCCN=C(N)N)C(=O)N[C@@H](CCCN=C(N)N)C(=O)N[C@@H](CCCN=C(N)N)C(=O)N[C@@H](CCCN=C(N)N)C(=O)N[C@@H](CCCN=C(N)N)C(=O)N[C@@H](CCCN=C(N)N)C(=O)N[C@@H](CCCN=C(N)N)C(=O)N[C@@H](CCCN=C(N)N)C(=O)N[C@@H](CCCN=C(N)N)C(=O)N[C@@H](CCCN=C(N)N)C(N)=O [MDRFSLKWKKKRKIRRRRRRRRRRR] as the compound, how does the MIC [16] read?
Answer: 3 µM (≈ 10.9 µg/mL)

Question: And the MIC (Escherichia coli BL21)?
Answer: 4 µM (≈ 14.5 µg/mL)

Question: And the MIC (Escherichia coli MG1655)?
Answer: 7.5 µM (≈ 27.2 µg/mL)

Question: Which MIC (Escherichia coli MG1655) does the source give for CC[C@H](C)[C@H](NC(=O)[C@H](CCCCN)NC(=O)CNC(=O)[C@H](CC(C)C)NC(=O)[C@H](Cc1ccccc1)NC(=O)[C@H](CCC(N)=O)NC(=O)[C@H](Cc1ccccc1)NC(=O)[C@@H](N)C(C)C)C(=O)N[C@H](C(=O)N[C@@H](Cc1cnc[nH]1)C(=O)N[C@@H](Cc1cnc[nH]1)C(=O)N[C@H](C(=O)NCC(=O)N[C@@H](CC(N)=O)C(=O)N[C@@H](Cc1ccccc1)C(=O)N[C@H](C(=O)N[C@@H](Cc1cnc[nH]1)C(=O)NCC(=O)N[C@@H](Cc1ccccc1)C(=O)N[C@@H](CO)C(=O)N[C@@H](C)C(=O)N[C@H](C(=O)N[C@@H](Cc1ccccc1)C(N)=O)C(C)C)C(C)C)C(C)C)[C@@H](C)CC [VFQFLGKIIHHVGNFVHGFSAVF] here?
Answer: ≥ 64 µM

Question: Which results are given for CC(C)C[C@H](NC(=O)[C@H](CCCCN)NC(=O)[C@H](CCCN=C(N)N)NC(=O)[C@H](Cc1ccccc1)NC(=O)[C@H](Cc1ccccc1)NC(=O)[C@H](CCCCN)NC(=O)[C@H](CCCCN)NC(=O)[C@H](Cc1ccccc1)NC(=O)[C@H](CCCN=C(N)N)NC(=O)[C@H](CCCCN)NC(=O)[C@@H](N)C(C)C)C(=O)N[C@@H](CCCCN)C(=O)N[C@@H](CCCCN)C(=O)N[C@@H](CO)C(=O)N[C@H](C(N)=O)C(C)C [VKRFKKFFRKLKKSV]?
Answer: MIC (Staphylococcus aureus): 8.25 µM (≈ 16 µg/mL); MIC [12]: 16.5 µM (≈ 32 µg/mL); MIC (Enterobacter cloacae): 4.12 µM (≈ 8 µg/mL); MIC [5]: ≥ 51.6 µM; MIC (Bacillus subtilis): ≥ 38.7 µM; MIC [17]: ≥ 33 µM; MIC [18]: 1.03 µM (≈ 2 µg/mL); MIC (Pseudomonas aeruginosa): 8.25 µM (≈ 16 µg/mL); MIC [10]: 0.516 µM (≈ 0.999 µg/mL); MIC (Escherichia coli): 8.25 µM (≈ 16 µg/mL); MIC [8]: 9.67 µM (≈ 18.7 µg/mL)
